{"source": "paper PMC10957570", "about": "“Coniferyl ferulate alleviate xylene-caused hematopoietic stem and progenitor cell toxicity by Mgst2” (Frontiers in Pharmacology, 2024)", "target": "T1, Mgst2 (Mus musculus, UniProt A2RST1)", "T1 construct": "native protein in lysate of CD117+ bone marrow cells, captured on CF chip and identified by LC-MS/MS", "T1 sequence (A2RST1 whole entry)": "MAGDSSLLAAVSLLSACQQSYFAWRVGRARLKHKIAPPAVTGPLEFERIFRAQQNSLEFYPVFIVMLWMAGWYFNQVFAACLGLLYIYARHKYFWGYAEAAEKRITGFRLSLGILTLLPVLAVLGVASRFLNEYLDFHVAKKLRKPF", "assay": "SPR capture from cell lysate on CF chip, LC-MS/MS identification", "assay_type": "biochemical", "conditions": "CD117+ bone marrow cell lysate; CF immobilised; excess free CF lowered total SPR signal"}
{"molecule": "COc1cc(/C=C/COC(=O)/C=C/c2ccc(O)c(OC)c2)ccc1O", "note": "[Coniferyl ferulate]", "values": [{"measurement": "SPR capture from cell lysate on CF chip, LC-MS/MS identification", "result": "we found that Mgst2 was one of the targets of CF"}]}
